PubChem BioAssay (NCI)
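Assay format: 96-well plates, 48-hour exposure. GI50: concentration for 50% inhibition of growth. TGI: concentration producing complete growth inhibition.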

Key:
Test in all cases: inhibition of tumour cell growth, NCI panel, 48 h
786-0 renal = tested on: 786-0 renal
A498 renal = tested on: A498 renal
A549 NSCLC = tested on: A549 NSCLC
ACHN renal = tested on: ACHN renal
BT-549 breast = tested on: BT-549 breast
CAKI-1 renal = tested on: CAKI-1 renal
CCRF-CEM leukemia = tested on: CCRF-CEM leukemia
COLO 205 colon = tested on: COLO 205 colon
DU-145 prostate = tested on: DU-145 prostate
EKVX NSCLC = tested on: EKVX NSCLC
HCC-2998 colon = tested on: HCC-2998 colon
HCT-116 colon = tested on: HCT-116 colon
HCT-15 colon = tested on: HCT-15 colon
HL-60(TB) leukemia = tested on: HL-60(TB) leukemia
HOP-62 NSCLC = tested on: HOP-62 NSCLC
HOP-92 NSCLC = tested on: HOP-92 NSCLC
HS 578T breast = tested on: HS 578T breast
HT29 colon = tested on: HT29 colon
IGROV1 ovarian = tested on: IGROV1 ovarian
K-562 leukemia = tested on: K-562 leukemia
KM12 colon = tested on: KM12 colon
LOX IMVI melanoma = tested on: LOX IMVI melanoma
M14 melanoma = tested on: M14 melanoma
MALME-3M melanoma = tested on: MALME-3M melanoma
MCF7 breast = tested on: MCF7 breast
MDA-MB-435 = tested on: MDA-MB-435
MDA-MB-468 breast = tested on: MDA-MB-468 breast
MOLT-4 leukemia = tested on: MOLT-4 leukemia
NCI-H226 lung = tested on: NCI-H226 lung
NCI-H23 lung = tested on: NCI-H23 lung
NCI-H460 lung = tested on: NCI-H460 lung
NCI-H522 lung = tested on: NCI-H522 lung
NCI/ADR-RES ovarian = tested on: NCI/ADR-RES ovarian
OVCAR-3 ovarian = tested on: OVCAR-3 ovarian
OVCAR-4 ovarian = tested on: OVCAR-4 ovarian
OVCAR-5 ovarian = tested on: OVCAR-5 ovarian
OVCAR-8 ovarian = tested on: OVCAR-8 ovarian
PC-3 prostate = tested on: PC-3 prostate
RPMI-8226 leukemia = tested on: RPMI-8226 leukemia
RXF 393 renal = tested on: RXF 393 renal
SF-268 CNS = tested on: SF-268 CNS
SF-295 CNS = tested on: SF-295 CNS
SF-539 CNS = tested on: SF-539 CNS
SK-MEL-2 melanoma = tested on: SK-MEL-2 melanoma
SK-MEL-28 melanoma = tested on: SK-MEL-28 melanoma
SK-MEL-5 melanoma = tested on: SK-MEL-5 melanoma
SK-OV-3 ovarian = tested on: SK-OV-3 ovarian
SN12C renal = tested on: SN12C renal
SNB-19 CNS = tested on: SNB-19 CNS
SNB-75 CNS = tested on: SNB-75 CNS
SW-620 colon = tested on: SW-620 colon
T-47D breast = tested on: T-47D breast
TK-10 renal = tested on: TK-10 renal
U251 CNS = tested on: U251 CNS
UACC-257 melanoma = tested on: UACC-257 melanoma
UACC-62 melanoma = tested on: UACC-62 melanoma
SR leukemia = tested on: SR leukemia
UO-31 renal = tested on: UO-31 renal

CCCCCCCCCCCCCCCCCCCC(=O)NCCc1c[nH]c2ccc(OC(=O)CCCC(=O)OCCOOCCOOCCOOCCOOCCOOCCOOCCOOCCOOCCOOCCOOCCOOCCOC)cc12
GI50 (786-0 renal): > 100 µM
TGI (786-0 renal): > 100 µM
GI50 (A498 renal): > 100 µM
TGI (A498 renal): > 100 µM
GI50 (A549 NSCLC): 21.7 µM
TGI (A549 NSCLC): 62.3 µM
GI50 (ACHN renal): 25.2 µM
TGI (ACHN renal): > 100 µM
GI50 (BT-549 breast): 4.15 µM
TGI (BT-549 breast): 14 µM
GI50 (CAKI-1 renal): 34 µM
TGI (CAKI-1 renal): > 100 µM
GI50 (CCRF-CEM leukemia): 0.769 µM
TGI (CCRF-CEM leukemia): 8.4 µM
GI50 (COLO 205 colon): > 100 µM
TGI (COLO 205 colon): > 100 µM
GI50 (DU-145 prostate): 24.8 µM
TGI (DU-145 prostate): > 100 µM
GI50 (EKVX NSCLC): 26.9 µM
TGI (EKVX NSCLC): > 100 µM
GI50 (HCC-2998 colon): 44.7 µM
TGI (HCC-2998 colon): > 100 µM
GI50 (HCT-116 colon): 30.7 µM
TGI (HCT-116 colon): > 100 µM
GI50 (HCT-15 colon): 31 µM
TGI (HCT-15 colon): > 100 µM
GI50 (HL-60(TB) leukemia): 2.53 µM
TGI (HL-60(TB) leukemia): 10.3 µM
GI50 (HOP-62 NSCLC): 26.7 µM
TGI (HOP-62 NSCLC): > 100 µM
GI50 (HOP-92 NSCLC): 18.6 µM
TGI (HOP-92 NSCLC): 44.8 µM
GI50 (HS 578T breast): 38.7 µM
TGI (HS 578T breast): > 100 µM
GI50 (HT29 colon): 32.9 µM
TGI (HT29 colon): > 100 µM
GI50 (IGROV1 ovarian): 16.2 µM
TGI (IGROV1 ovarian): 38.9 µM
GI50 (K-562 leukemia): 5.59 µM
TGI (K-562 leukemia): 26.4 µM
GI50 (KM12 colon): 17.5 µM
TGI (KM12 colon): 52.6 µM
GI50 (LOX IMVI melanoma): 13.4 µM
TGI (LOX IMVI melanoma): 33.1 µM
GI50 (M14 melanoma): 29 µM
TGI (M14 melanoma): > 100 µM
GI50 (MALME-3M melanoma): 54.3 µM
TGI (MALME-3M melanoma): > 100 µM
GI50 (MCF7 breast): 24.1 µM
TGI (MCF7 breast): > 100 µM
GI50 (MDA-MB-435): 41.2 µM
TGI (MDA-MB-435): > 100 µM
GI50 (MDA-MB-468 breast): 29.6 µM
TGI (MDA-MB-468 breast): > 100 µM
GI50 (MOLT-4 leukemia): 4.61 µM
TGI (MOLT-4 leukemia): 23 µM
GI50 (NCI-H226 lung): 14 µM
TGI (NCI-H226 lung): 33.1 µM
GI50 (NCI-H23 lung): 18.9 µM
TGI (NCI-H23 lung): 42.4 µM
GI50 (NCI-H460 lung): 27.9 µM
TGI (NCI-H460 lung): > 100 µM
GI50 (NCI-H522 lung): 2.7 µM
TGI (NCI-H522 lung): 9.36 µM
GI50 (NCI/ADR-RES ovarian): 21.8 µM
TGI (NCI/ADR-RES ovarian): 72 µM
GI50 (OVCAR-3 ovarian): 10.7 µM
TGI (OVCAR-3 ovarian): 25.6 µM
GI50 (OVCAR-4 ovarian): 20.8 µM
TGI (OVCAR-4 ovarian): 95.1 µM
GI50 (OVCAR-5 ovarian): 68 µM
TGI (OVCAR-5 ovarian): > 100 µM
GI50 (OVCAR-8 ovarian): 16 µM
TGI (OVCAR-8 ovarian): 38.5 µM
GI50 (PC-3 prostate): 11.6 µM
TGI (PC-3 prostate): 49.5 µM
GI50 (RPMI-8226 leukemia): 3.22 µM
TGI (RPMI-8226 leukemia): 26.5 µM
GI50 (RXF 393 renal): 18.9 µM
TGI (RXF 393 renal): 39.2 µM
GI50 (SF-268 CNS): 15.2 µM
TGI (SF-268 CNS): 47.1 µM
GI50 (SF-295 CNS): 15.7 µM
TGI (SF-295 CNS): 31.6 µM
GI50 (SF-539 CNS): 11 µM
TGI (SF-539 CNS): 25.3 µM
GI50 (SK-MEL-2 melanoma): 26.1 µM
TGI (SK-MEL-2 melanoma): > 100 µM
GI50 (SK-MEL-28 melanoma): > 100 µM
TGI (SK-MEL-28 melanoma): > 100 µM
GI50 (SK-MEL-5 melanoma): 40.8 µM
TGI (SK-MEL-5 melanoma): > 100 µM
GI50 (SK-OV-3 ovarian): > 100 µM
TGI (SK-OV-3 ovarian): > 100 µM
GI50 (SN12C renal): 12.6 µM
TGI (SN12C renal): 33.2 µM
GI50 (SNB-19 CNS): 22.4 µM
TGI (SNB-19 CNS): 62.8 µM
GI50 (SNB-75 CNS): > 100 µM
TGI (SNB-75 CNS): > 100 µM
GI50 (SW-620 colon): 35.5 µM
TGI (SW-620 colon): > 100 µM
GI50 (T-47D breast): 14.9 µM
TGI (T-47D breast): > 100 µM
GI50 (TK-10 renal): > 100 µM
TGI (TK-10 renal): > 100 µM
GI50 (U251 CNS): 17.1 µM
TGI (U251 CNS): 33.9 µM
GI50 (UACC-257 melanoma): > 100 µM
TGI (UACC-257 melanoma): > 100 µM
GI50 (UACC-62 melanoma): 34.8 µM
TGI (UACC-62 melanoma): > 100 µM

Cn1cc(-c2cc(N)n3nc(-c4c[nH]c5ccc(Cl)cc45)cc3n2)c2cccnc21
GI50 (786-0 renal): 1.56 µM
TGI (786-0 renal): 2.91 µM
GI50 (A498 renal): 20.1 µM
TGI (A498 renal): 37.7 µM
GI50 (ACHN renal): 1.72 µM
TGI (ACHN renal): 3.17 µM
GI50 (CAKI-1 renal): 1.64 µM
TGI (CAKI-1 renal): 3.5 µM
GI50 (CCRF-CEM leukemia): 2.51 µM
TGI (CCRF-CEM leukemia): 9.05 µM
GI50 (COLO 205 colon): 1.75 µM
TGI (COLO 205 colon): 3.27 µM
GI50 (EKVX NSCLC): 1.85 µM
TGI (EKVX NSCLC): 4.53 µM
GI50 (HCC-2998 colon): 1.76 µM
TGI (HCC-2998 colon): 3.2 µM
GI50 (HCT-116 colon): 1.81 µM
TGI (HCT-116 colon): 3.29 µM
GI50 (HCT-15 colon): 1.79 µM
TGI (HCT-15 colon): 3.94 µM
GI50 (HL-60(TB) leukemia): 1.8 µM
TGI (HL-60(TB) leukemia): 5.47 µM
GI50 (HS 578T breast): 1.97 µM
TGI (HS 578T breast): 5.08 µM
GI50 (K-562 leukemia): 2.76 µM
TGI (K-562 leukemia): > 100 µM
GI50 (KM12 colon): 2.03 µM
TGI (KM12 colon): 4.18 µM
GI50 (M14 melanoma): 1.81 µM
TGI (M14 melanoma): 3.42 µM
GI50 (MALME-3M melanoma): 1.62 µM
TGI (MALME-3M melanoma): 3.04 µM
GI50 (MCF7 breast): 1.77 µM
TGI (MCF7 breast): 3.93 µM
GI50 (MDA-MB-468 breast): 1.56 µM
TGI (MDA-MB-468 breast): 3.25 µM
GI50 (NCI-H23 lung): 1.71 µM
TGI (NCI-H23 lung): 3.39 µM
GI50 (OVCAR-3 ovarian): 1.68 µM
TGI (OVCAR-3 ovarian): 3.27 µM
GI50 (OVCAR-4 ovarian): 1.79 µM
TGI (OVCAR-4 ovarian): 3.76 µM
GI50 (OVCAR-5 ovarian): 1.73 µM
TGI (OVCAR-5 ovarian): 3.62 µM
GI50 (PC-3 prostate): 2.54 µM
TGI (PC-3 prostate): 8.68 µM
GI50 (RPMI-8226 leukemia): 2.6 µM
TGI (RPMI-8226 leukemia): > 100 µM
GI50 (RXF 393 renal): 1.49 µM
TGI (RXF 393 renal): 2.9 µM
GI50 (SF-268 CNS): 2.06 µM
TGI (SF-268 CNS): 4.82 µM
GI50 (SF-295 CNS): 1.65 µM
TGI (SF-295 CNS): 3.13 µM
GI50 (SF-539 CNS): 1.62 µM
TGI (SF-539 CNS): 3.01 µM
GI50 (SK-MEL-2 melanoma): 12.3 µM
TGI (SK-MEL-2 melanoma): 24.7 µM
GI50 (SK-MEL-28 melanoma): 1.53 µM
TGI (SK-MEL-28 melanoma): 2.9 µM
GI50 (SK-MEL-5 melanoma): 1.65 µM
TGI (SK-MEL-5 melanoma): 3.06 µM
GI50 (SK-OV-3 ovarian): 2.03 µM
TGI (SK-OV-3 ovarian): 4.76 µM
GI50 (SN12C renal): 1.52 µM
TGI (SN12C renal): 3.13 µM
GI50 (SNB-19 CNS): 2.6 µM
TGI (SNB-19 CNS): 6.74 µM
GI50 (SR leukemia): 2.3 µM
TGI (SR leukemia): > 100 µM
GI50 (TK-10 renal): 2.02 µM
TGI (TK-10 renal): 4.64 µM
GI50 (UACC-257 melanoma): 1.9 µM
TGI (UACC-257 melanoma): 3.87 µM
GI50 (UACC-62 melanoma): 1.63 µM
TGI (UACC-62 melanoma): 3.07 µM
GI50 (UO-31 renal): 1.55 µM
TGI (UO-31 renal): 3.05 µM
